How the values were obtained:
[1] = tested on: Thalamus; assay: Drug uptake in anesthetized cynomolgus monkey brain thalamus after 6.5 mins postinjection; assay type: ADME, organism-based, Macaca fascicularis; design: unit not given here; settings: in vivo
[2] = Drug uptake in anesthetized cynomolgus monkey brain frontal lobe after 75 mins postinjection; assay type: ADME, organism-based, Macaca fascicularis; settings: in vivo, 1.25 h
[3] = tested on: Caudate; assay: Drug uptake in anesthetized cynomolgus monkey brain caudate after 6.5 mins postinjection; assay type: ADME, organism-based, Macaca fascicularis, Caudate nucleus; settings: in vivo
[4] = Ratio of drug uptake in pons to cerebellum in anesthetized cynomolgus monkey after 85 mins postinjection; assay type: ADME, organism-based, Macaca fascicularis; settings: in vivo
[5] = tested on: Medulla; assay: Drug uptake in anesthetized cynomolgus monkey brain medulla after 85 mins postinjection; assay type: ADME, organism-based, Macaca fascicularis; settings: in vivo
[6] = tested on: Putamen; assay: Drug uptake in anesthetized cynomolgus monkey brain putamen after 85 mins postinjection; assay type: ADME, organism-based, Macaca fascicularis; design: unit not given here; settings: in vivo
[7] = tested on: Midbrain; assay: Drug uptake in anesthetized cynomolgus monkey brain midbrain after 145 mins postinjection; assay type: ADME, organism-based, Macaca fascicularis; settings: in vivo
[8] = Ratio of drug uptake in putamen to cerebellum in anesthetized cynomolgus monkey after 165 mins postinjection; assay type: ADME, organism-based, Macaca fascicularis; settings: in vivo, 2.75 h
[9] = tested on: Midbrain; assay: Drug uptake in anesthetized cynomolgus monkey brain midbrain after 105 mins postinjection; assay type: ADME, organism-based, Macaca fascicularis; design: unit not given here; settings: in vivo, 1.75 h
[10] = Ratio of drug uptake in thalamus to cerebellum in anesthetized cynomolgus monkey after 9.5 mins postinjection; assay type: ADME, organism-based, Macaca fascicularis; settings: in vivo
[11] = tested on: Caudate; assay: Drug uptake in anesthetized cynomolgus monkey brain caudate after 95 mins postinjection; assay type: ADME, organism-based, Macaca fascicularis, Caudate nucleus; settings: in vivo
[12] = tested on: Thalamus; assay: Drug uptake in anesthetized cynomolgus monkey brain thalamus after 35 mins postinjection; assay type: ADME, organism-based, Macaca fascicularis; design: unit not given here; settings: in vivo
[13] = Ratio of drug uptake in medulla to cerebellum in anesthetized cynomolgus monkey after 95 mins postinjection; assay type: ADME, organism-based, Macaca fascicularis; settings: in vivo
[14] = tested on: Pons; assay: Drug uptake in anesthetized cynomolgus monkey brain pons after 65 mins postinjection; assay type: ADME, organism-based, Macaca fascicularis; settings: in vivo
[15] = tested on: Medulla; assay: Drug uptake in anesthetized cynomolgus monkey brain medulla after 9.5 mins postinjection; assay type: ADME, organism-based, Macaca fascicularis; settings: in vivo
[16] = Drug uptake in anesthetized cynomolgus monkey brain occipital lobe after 18.5 mins postinjection; assay type: ADME, organism-based, Macaca fascicularis; settings: in vivo
[17] = Drug uptake in anesthetized cynomolgus monkey brain occipital lobe after 215 mins postinjection; assay type: ADME, organism-based, Macaca fascicularis; settings: in vivo
[18] = tested on: Midbrain; assay: Drug uptake in anesthetized cynomolgus monkey brain midbrain after 12.5 mins postinjection; assay type: ADME, organism-based, Macaca fascicularis; design: unit not given here; settings: in vivo
[19] = tested on: Midbrain; assay: Drug uptake in anesthetized cynomolgus monkey brain midbrain after 115 mins postinjection; assay type: ADME, organism-based, Macaca fascicularis; design: unit not given here; settings: in vivo
[20] = Ratio of drug uptake in caudate to cerebellum in anesthetized cynomolgus monkey after 55 mins postinjection; assay type: ADME, organism-based, Macaca fascicularis; settings: in vivo
[21] = Drug uptake in anesthetized cynomolgus monkey brain frontal lobe after 18.5 mins postinjection; assay type: ADME, organism-based, Macaca fascicularis; settings: in vivo
[22] = tested on: Midbrain; assay: Drug uptake in anesthetized cynomolgus monkey brain midbrain after 125 mins postinjection; assay type: ADME, organism-based, Macaca fascicularis; design: unit not given here; settings: in vivo
[23] = tested on: Putamen; assay: Drug uptake in anesthetized cynomolgus monkey brain putamen after 175 mins postinjection; assay type: ADME, organism-based, Macaca fascicularis; settings: in vivo
[24] = tested on: Putamen; assay: Drug uptake in anesthetized cynomolgus monkey brain putamen after 6.5 mins postinjection; assay type: ADME, organism-based, Macaca fascicularis; design: unit not given here; settings: in vivo
[25] = tested on: Caudate; assay: Drug uptake in anesthetized cynomolgus monkey brain caudate after 225 mins postinjection; assay type: ADME, organism-based, Macaca fascicularis, Caudate nucleus; settings: in vivo, 3.75 h
[26] = tested on: Thalamus; assay: Drug uptake in anesthetized cynomolgus monkey brain thalamus after 1.5 mins postinjection; assay type: ADME, organism-based, Macaca fascicularis; settings: in vivo, 0.025 h
[27] = tested on: Medulla; assay: Drug uptake in anesthetized cynomolgus monkey brain medulla after 115 mins postinjection; assay type: ADME, organism-based, Macaca fascicularis; settings: in vivo
[28] = tested on: Pons; assay: Drug uptake in anesthetized cynomolgus monkey brain pons after 75 mins postinjection; assay type: ADME, organism-based, Macaca fascicularis; settings: in vivo, 1.25 h
[29] = Drug uptake in anesthetized cynomolgus monkey brain occipital lobe after 3.5 mins postinjection; assay type: ADME, organism-based, Macaca fascicularis; settings: in vivo
[30] = tested on: Putamen; assay: Drug uptake in anesthetized cynomolgus monkey brain putamen after 115 mins postinjection; assay type: ADME, organism-based, Macaca fascicularis; design: unit not given here; settings: in vivo
[31] = Drug uptake in anesthetized cynomolgus monkey brain cerebellum after 85 mins postinjection; assay type: ADME, organism-based, Macaca fascicularis; settings: in vivo
[32] = Drug uptake in anesthetized cynomolgus monkey brain cerebellum after 45 mins postinjection; assay type: ADME, organism-based, Macaca fascicularis; settings: in vivo, 0.75 h
[33] = Ratio of drug uptake in pons to cerebellum in anesthetized cynomolgus monkey after 35 mins postinjection; assay type: ADME, organism-based, Macaca fascicularis; settings: in vivo
[34] = tested on: Thalamus; assay: Drug uptake in anesthetized cynomolgus monkey brain thalamus after 165 mins postinjection; assay type: ADME, organism-based, Macaca fascicularis; design: unit not given here; settings: in vivo, 2.75 h
[35] = Drug uptake in anesthetized cynomolgus monkey brain frontal lobe after 85 mins postinjection; assay type: ADME, organism-based, Macaca fascicularis; settings: in vivo
[36] = Drug uptake in anesthetized cynomolgus monkey brain cerebellum after 165 mins postinjection; assay type: ADME, organism-based, Macaca fascicularis; settings: in vivo, 2.75 h
[37] = Drug uptake in anesthetized cynomolgus monkey brain frontal lobe after 45 mins postinjection; assay type: ADME, organism-based, Macaca fascicularis; settings: in vivo, 0.75 h
[38] = Drug uptake in anesthetized cynomolgus monkey brain occipital lobe after 2.5 mins postinjection; assay type: ADME, organism-based, Macaca fascicularis; settings: in vivo
[39] = Ratio of drug uptake in frontal lobe to cerebellum in anesthetized cynomolgus monkey after 125 mins postinjection; assay type: ADME, organism-based, Macaca fascicularis; settings: in vivo
[40] = tested on: Midbrain; assay: Drug uptake in anesthetized cynomolgus monkey brain midbrain after 235 mins postinjection; assay type: ADME, organism-based, Macaca fascicularis; settings: in vivo
[41] = Ratio of drug uptake in pons to cerebellum in anesthetized cynomolgus monkey after 1.5 mins postinjection; assay type: ADME, organism-based, Macaca fascicularis; settings: in vivo, 0.025 h
[42] = tested on: Putamen; assay: Drug uptake in anesthetized cynomolgus monkey brain putamen after 125 mins postinjection; assay type: ADME, organism-based, Macaca fascicularis; settings: in vivo
[43] = tested on: Pons; assay: Drug uptake in anesthetized cynomolgus monkey brain pons after 27.5 mins postinjection; assay type: ADME, organism-based, Macaca fascicularis; settings: in vivo
[44] = Ratio of drug uptake in occipital lobe to cerebellum in anesthetized cynomolgus monkey after 135 mins postinjection; assay type: ADME, organism-based, Macaca fascicularis; settings: in vivo, 2.25 h
[45] = tested on: Medulla; assay: Drug uptake in anesthetized cynomolgus monkey brain medulla after 125 mins postinjection; assay type: ADME, organism-based, Macaca fascicularis; settings: in vivo
[46] = Drug uptake in anesthetized cynomolgus monkey brain occipital lobe after 155 mins postinjection; assay type: ADME, organism-based, Macaca fascicularis; settings: in vivo
[47] = tested on: Putamen; assay: Drug uptake in anesthetized cynomolgus monkey brain putamen after 155 mins postinjection; assay type: ADME, organism-based, Macaca fascicularis; settings: in vivo
[48] = Ratio of drug uptake in thalamus to cerebellum in anesthetized cynomolgus monkey after 115 mins postinjection; assay type: ADME, organism-based, Macaca fascicularis; settings: in vivo
[49] = tested on: Putamen; assay: Drug uptake in anesthetized cynomolgus monkey brain putamen after 27.5 mins postinjection; assay type: ADME, organism-based, Macaca fascicularis; design: unit not given here; settings: in vivo
[50] = tested on: Pons; assay: Drug uptake in anesthetized cynomolgus monkey brain pons after 3.5 mins postinjection; assay type: ADME, organism-based, Macaca fascicularis; settings: in vivo
[51] = tested on: Midbrain; assay: Drug uptake in anesthetized cynomolgus monkey brain midbrain after 85 mins postinjection; assay type: ADME, organism-based, Macaca fascicularis; design: unit not given here; settings: in vivo
[52] = tested on: Pons; assay: Drug uptake in anesthetized cynomolgus monkey brain pons after 15.5 mins postinjection; assay type: ADME, organism-based, Macaca fascicularis; settings: in vivo
[53] = tested on: Caudate; assay: Drug uptake in anesthetized cynomolgus monkey brain caudate after 1.5 mins postinjection; assay type: ADME, organism-based, Macaca fascicularis, Caudate nucleus; settings: in vivo, 0.025 h
[54] = tested on: Midbrain; assay: Drug uptake in anesthetized cynomolgus monkey brain midbrain after 135 mins postinjection; assay type: ADME, organism-based, Macaca fascicularis; settings: in vivo, 2.25 h
[55] = Drug uptake in anesthetized cynomolgus monkey brain cerebellum after 65 mins postinjection; assay type: ADME, organism-based, Macaca fascicularis; settings: in vivo
[56] = tested on: Thalamus; assay: Drug uptake in anesthetized cynomolgus monkey brain thalamus after 4.5 mins postinjection; assay type: ADME, organism-based, Macaca fascicularis; design: unit not given here; settings: in vivo, 0.075 h
[57] = Ratio of drug uptake in thalamus to cerebellum in anesthetized cynomolgus monkey after 27.5 mins postinjection; assay type: ADME, organism-based, Macaca fascicularis; settings: in vivo
[58] = Ratio of drug uptake in caudate to cerebellum in anesthetized cynomolgus monkey after 18.5 mins postinjection; assay type: ADME, organism-based, Macaca fascicularis; settings: in vivo
[59] = tested on: Putamen; assay: Drug uptake in anesthetized cynomolgus monkey brain putamen after 0.5 mins postinjection; assay type: ADME, organism-based, Macaca fascicularis; settings: in vivo
[60] = Ratio of drug uptake in occipital lobe to cerebellum in anesthetized cynomolgus monkey after 235 mins postinjection; assay type: ADME, organism-based, Macaca fascicularis; settings: in vivo

For `O=C(OCCC[18F])C1C2CCC(CC1c1cccc(/C=C\Br)c1)N2` (stereo not given), the Drug uptake [1] was 3.71, the Drug uptake [2] was 3.49 and the Drug uptake [3] was 3.14. The Ratio [4] was 1.2, the Drug uptake [5] was 5.41 and the Drug uptake [6] was 5.54. For the same molecule, the Drug uptake [7] was 5.18, the Ratio [8] was 1.7 and the Drug uptake [9] was 5.59. For the same molecule, the Ratio [10] was 0.7, the Drug uptake [11] was 5.03 and the Drug uptake [12] was 5.26. For the same molecule, the Ratio [13] was 1.5, the Drug uptake [14] was 4.93 and the Drug uptake [15] was 5.63. The Drug uptake [16] was 4.35, the Drug uptake [17] was 2.7 and the Drug uptake [18] was 5.24. It also gave a Drug uptake [19] of 5.52, a Ratio [20] of 1.1 and a Drug uptake [21] of 3.7. The Drug uptake [22] was 5.5, the Drug uptake [23] was 4.1 and the Drug uptake [24] was 4.42. For the same molecule, the Drug uptake [25] was 3.46, the Drug uptake [26] was 0.34 and the Drug uptake [27] was 5.07. The Drug uptake [28] was 4.67, the Drug uptake [29] was 1.51 and the Drug uptake [30] was 5.03. For the same molecule, the Drug uptake [31] was 3.83, the Drug uptake [32] was 5.11 and the Ratio [33] was 0.9. It also gave a Drug uptake [34] of 4.31, a Drug uptake [35] of 3.32 and a Drug uptake [36] of 2.57. The Drug uptake [37] was 3.72, the Drug uptake [38] was 1.03 and the Ratio [39] was 0.9. The Drug uptake [40] was 4.33, the Ratio [41] was 0.8 and the Drug uptake [42] was 4.82. The Drug uptake [43] was 5.03, the Ratio [44] was 1.2 and the Drug uptake [45] was 4.99. For the same molecule, the Drug uptake [46] was 3.27, the Drug uptake [47] was 4.38 and the Ratio [48] was 1.5. The Drug uptake [49] was 5.95, the Drug uptake [50] was 1.87 and the Drug uptake [51] was 5.86. The Drug uptake [52] was 4.79, the Drug uptake [53] was 0.31 and the Drug uptake [54] was 5.36. It also gave a Drug uptake [55] of 4.29, a Drug uptake [56] of 2.48 and a Ratio [57] of 0.9. It also gave a Ratio [58] of 0.7, a Drug uptake [59] of 0.01 and a Ratio [60] of 1.4.

From ChEMBL document CHEMBL1151757, “Synthesis, radiosynthesis, and biological evaluation of fluorine-18-labeled 2beta-carbo(fluoroalkoxy)-3beta-(3'-((Z)-2-haloethenyl)phenyl)nortropanes: candidate radioligands for in vivo imaging of the serotonin transporter with positron emission tomography” (J Med Chem, 2008)
